The values that follow come from patent US20110039873A1, “SUBSTITUTED PYRAZOLO[1,5-a] PYRIDINE COMPOUNDS HAVING MULTI-TARGET ACTIVITY” (priority 2009, published 2011).

One may read the IC50 as the concentration that gives 50% inhibition. As a reminder, the EC50 is the concentration needed to bring the measured effect to its halfway point. The Cmax is the peak of the concentration-time curve.

Structures are written as SMILES. Where two headings read alike, the source gives them in different places.

The target in series [1] is T1, catalytic domain of phosphodiesterase 4B enzyme cloned from human brain (Homo sapiens, UniProt Q07343).
T1 construct: the catalytic domain of phosphodiesterase 4B enzyme; purchased Scottish Biomedical
Description: PDE4 inhibition assay (PDELight). The series is classed as biochemical. The conditions noted are these: for IC50: 5 uM cAMP, read-out: PDE 4 Inhibition (IC50 in μM). Put shortly:
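Human PDE4B catalytic domain (40 mU/well) incubated with 5 uM cAMP. AMP formed was converted to ATP and measured by luciferase luminescence (PDELight). IC50 derived by nonlinear regression curve fit.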

The subject of series [2] is phosphorylated c-Jun (serine-73). Description: Phosphorylated c-JUN (6-OHDA), SH-SY5Y. The class given is cell-based. The conditions noted are these: Homo sapiens, 50 uM 6-hydroxydopamine, 1.5 hours, read-out: p-cJun 6-OHDA SH-SY5Y (EC50 in μM). As to the method:
Human SH-SY5Y neuroblastoma cells were cultured in 96-well plates with 2.5×10^4 cells/well and incubated for 48 hours. 6-hydroxydopamine was added at a concentration of 50 uM in the presence or absence of test compounds (0-30 uM) and incubated for 1.5 hours. Supernatant was discarded and cells were fixed with 4% paraformaldehyde (100 ul/well) for 20 minutes. FACE cell based ELISA assay (Active Motif) was performed specific for quantifying phosphorlyated c-Jun (serine-73).

For series [3], the target named is T2, recombinant full length human JNK3 enzyme (Homo sapiens, UniProt P53779).
T2 construct: recombinant full length human JNK2 or JNK3 enzyme; purchased Upstate; host or cells: Sf21 cells
The experiment in a line: JNK 3 inhibition assay (ATP depletion, luciferase). The class given is biochemical. The settings on record: for IC50: 10 uM ATP, ATF2 substrate; for JNK-3 inhibition (in words): see Table 2. As to the method:
In a 96-well plate, recombinant full length human JNK2 or JNK3 enzyme (40 ng) expressed in Sf21 cells (Upstate) was incubated with the substrate ATF2 (3 uM) for 1 hour in the presence of 10 uM ATP. […] The ATP levels were quantified using luciferase with luminescence read on a Victor Light 1420 luminometer. IC50 calculations were plotted using a nonlinear regression curve fit.

Series [4] has as its system Male Wistar rats. The experiment in a line: Morris Maze test. The class given is in vivo, rat. From the text:
The potential cognitive enhancing properties of the exemplary compound, AV1137, were examined in the Morris Maze test in the rat.
Male Wistar rats were given 4 training sessions over 4 consecutive days. The training session consisted of 4 consecutive trials in the Morris Maze, each separated by 60 seconds. For each trial, the animal was placed in the maze at one of two starting points equidistant from the escape platform and allowed to find the escape platform. The animal was left on the escape platform for 60 seconds before starting a new trial. […] During the 4 trials the animals started the maze twice from each starting point in a randomly determined order per animal.
The trials were video-recorded and the behaviour of animals was analysed using a video-tracking system (Panlab: SMART). The measures taken were the escape latency, the path length and the swim speed at each trial. Scopolamine (0.5 mg/kg i.p.), administered 30 minutes before each session, induces amnesia as indicated by the failure of scopolamine-treated rats to reduce their escape latencies from trial to trial. 12 rats were studied per group. […]
AV1137 was evaluated at 2 and 5 mg/kg, administered twice daily. […]
AV1137 was also administered at the end of each acquisition day (i.e. 6-8 hours after the first administration). […] Data were analyzed by comparing treated groups with appropriate control using unpaired Student's t tests.

Series [5] in a line: Oral pharmacokinetic evaluation. The series is classed as in vivo, rat. The conditions noted are these: Sprague-Dawley rats; for half-life / AUC(0-t) / Cmax: male, rat, plasma; for half-life: Sprague-Dawley, po, 15 mg/kg; for AUC(0-t): read-out: Oral PK AUClast; for Cmax: read-out: Oral PK Cmax. As to the method:
Three male Sprague-Dawley rats were dosed orally via gavage with 15 mg/kg of test compound. Serial blood samples were collected from the jugular vein at 5, 15, and 30 min, 1, 3, and 6 hours post dosing. Samples were processed for plasma via centrifugation and plasma samples were stored frozen prior to analysis via a sensitive and specific HPLC/MS/MS method. PK parameters were calculated using WinNonLin (Pharsight).

For series [6], the system named is 6-OHDA lesioned rats. Description: 6-OHDA (Parkinson's) model, apomorphine induced rotations. The class given is in vivo, rat. The conditions noted are these: 50 mg/kg PO once daily, after 7 days; control 444, baseline 315. Here is the method: AV1173 was evaluated in a 6-OHDA lesioned rats, a standard rat model of Parkinson's disease. (See, e.g., Ungerstedt, U. “6-hydroxydopamine induced degeneration of monoamine neurons.” Eur. J. Pharm. 5: 107-110, 1968; Garvey P M, et al., “Injection of biologically relevant active substances into the brain.” Methods in Neurosciences. 21: 214-234, 1994).
Pre-lesioned rats were purchased from a vendor (Taconic) following stereotaxic injection into the brain of the neurotoxin 6-hydroxydopamine (6-OHDA), which leads to neuronal cell loss in those brain regions affected in PD (in particular the substantia nigra). Briefly, anesthetized rats were injected with […] of 6-OHDA using stereotaxic coordinates to locate the needle within the nigrostatial pathway. A 2 ug/uL solution of 6-OHDA was infused at a rate of 1 ul/min for four minutes. […] On […] post-injection, rats began a once-daily oral regimen of AV1173 (50 mg/kg PO). Rats were assessed for rotational behavior following 0.5 mg/kg apomorphine challenge, one week from the initiation of dosing (Day 17 post-6-OHDA injection).

Where [7] appears, read: 15 mg/kg oral gavage, read-out: Oral PK T½ (converted).

T2 sequence (P53779 whole entry): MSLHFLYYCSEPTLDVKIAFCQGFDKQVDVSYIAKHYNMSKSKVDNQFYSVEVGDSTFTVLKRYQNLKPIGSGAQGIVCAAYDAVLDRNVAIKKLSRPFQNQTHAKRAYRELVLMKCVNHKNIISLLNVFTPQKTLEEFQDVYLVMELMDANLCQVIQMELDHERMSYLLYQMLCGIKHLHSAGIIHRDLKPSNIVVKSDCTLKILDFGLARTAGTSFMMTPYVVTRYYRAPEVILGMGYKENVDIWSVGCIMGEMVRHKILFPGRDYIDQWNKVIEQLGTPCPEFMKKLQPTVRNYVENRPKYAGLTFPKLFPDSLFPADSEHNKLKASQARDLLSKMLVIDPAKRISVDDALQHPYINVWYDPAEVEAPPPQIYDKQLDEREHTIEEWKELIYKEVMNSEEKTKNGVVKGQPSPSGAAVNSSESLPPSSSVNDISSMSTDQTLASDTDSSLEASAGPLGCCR
T1 sequence (Q07343 330-659 limits assumed): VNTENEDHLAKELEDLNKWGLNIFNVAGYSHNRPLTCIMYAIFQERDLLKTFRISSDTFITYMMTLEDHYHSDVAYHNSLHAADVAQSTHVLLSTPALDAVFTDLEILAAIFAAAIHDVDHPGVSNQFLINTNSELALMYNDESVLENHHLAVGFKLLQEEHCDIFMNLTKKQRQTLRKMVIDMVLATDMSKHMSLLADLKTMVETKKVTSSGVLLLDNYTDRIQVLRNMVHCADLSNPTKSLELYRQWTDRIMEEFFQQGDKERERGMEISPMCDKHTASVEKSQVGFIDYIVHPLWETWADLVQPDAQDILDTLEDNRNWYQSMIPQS

As to `CC(C)Nc1nccc(-c2c(C(C)C)nn3ccccc23)n1` [AV1137, N-isopropyl-4-(2-isopropylpyrazolo[1,5-a]pyridin-3-yl)pyrimidin-2-amine], in series [1], the “PDE-4 inhibition (in words)” value was “particularly effective” and the 50% inhibitory concentration (IC50) was determined as 4.3 µM. Moreover, in series [2], the EC50 stood at 6.1 µM. For the same molecule, in series [3], the IC50 amounted to 2.6 µM. Also, the escape latencies result in series [4] (normal rats (no scopolamine), 5 mg/kg i.p., relative to saline controls, FIG. 5) was “trend for reduced escape latencies”. In series [4] (scopolamine-induced deficit, 2 and 5 mg/kg i.p. twice daily, relative to scopolamine treated controls, FIG. 4), the “escape latency and distance swum” value is “trend was seen for decreased escape latency and distance swum”. The half-life in series [5] (setting [7]) is 1.2 h. In addition, in series [5] (15 mg/kg oral gavage), the AUC(0-t) turned out to be 52 ng·h/mL and the Cmax amounted to 26 ng/mL.
As for `CC(C)Nc1nccc(-c2cnn3ccccc23)n1` [AV1164, N-isopropyl-4-(pyrazolo[1,5-a]pyridin-3-yl)pyrimidin-2-amine], in series [1], the “PDE-4 inhibition (in words)” value was “particularly effective” and the IC50 worked out at 5.9 µM. In series [2], the EC50 amounted to 3.1 µM. In series [3], the half-inhibitory concentration (IC50) worked out at 0.3 µM and the “JNK-3 inhibition (in words)” value is reported as “particularly effective”. In series [5] (15 mg/kg oral gavage), the AUC(0-t) came to 12 ng·h/mL and the Cmax was determined as 17 ng/mL.
Regarding `c1ccn2ncc(-c3ccnc(NC4CCCC4)n3)c2c1` [AV1165, N-cyclopentyl-4-(pyrazolo[1,5-a]pyridin-3-yl)pyrimidin-2-amine], the IC50 is 14 µM in series [1] and 0.2 µM in series [3]. Also, the EC50 in series [2] was found to be 1.1 µM. Moreover, the “JNK-3 inhibition (in words)” value in series [3] was “particularly effective”. Besides, the AUC(0-t) in series [5] (15 mg/kg oral gavage) was below 5 ng·h/mL.
`CC(C)Nc1nccc(-c2c(C3CC3)nn3ccccc23)n1` [AV1173, 4-(2-cyclopropylpyrazolo[1,5-a]pyridin-3-yl)-N-isopropylpyrimidin-2-amine]: the “average number of apomorphine induced rotations in 30 minutes” value in series [6] is given as 354. In series [1], the “PDE-4 inhibition (in words)” value was “particularly effective” and the 50% inhibitory concentration (IC50) worked out at 1.1 µM. For the same molecule, the concentration for a half-maximal effect (EC50) in series [2] turned out to be 7.7 µM. In addition, in series [3], the IC50 came to 1.2 µM and the “JNK-3 inhibition (in words)” value is recorded as “particularly effective”. Further, the “half life following oral dosing (in words)” value in series [5] (oral) is on record as “particularly prolonged half lives”. Further, the half-life in series [5] (setting [7]) is 9.4 h. Moreover, the half-life in series [5] (oral, read-out: half life following oral dosing) is above 3 h. Besides, in series [5] (15 mg/kg oral gavage), the AUC(0-t) came out at 462 ng·h/mL and the peak concentration (Cmax) is 122 ng/mL.
